Experimental data from patent US20210284742A1, “METHODS OF TREATING OR PREVENTING MUCORMYCOSIS” (University of Maryland, Baltimore, priority 2018, published 2021).

Legend:
[1] = test system: A549 cells infected with R. oryzae; assay: R. oryzae-induced damage of A549 cells (LDH assay); format: cell-based, human; settings: 25 μM Mifepristone overnight and/or 25 μM Gefitinib 1 h, 24 h infection (FIG. 14)
Description: R. delemar-induced A549 cell damage was quantified using the Pierce LDH assay, with slight modifications to the manufacturer's protocol. Briefly, A549 cells were grown in 96-well tissue culture plates for 18 to 24 h. […] For controls, host cells were incubated with the appropriate amount of diluent used to reconstitute the in parallel. After 24 h of incubation at 37° C., 50 μl of the cell culture supernatant was collected from uninfected, infected, and fungus-only control wells and transferred to a 96-well plate to assay for LDH activity. Lysis buffer was added to all infected wells, and the mixture was incubated for 45 min at 37° C. After lysis, 50 μl of cell culture supernatant was transferred to a 96-well plate and used for the LDH assay kit per the protocol. LDH release was calculated as follows: % cytotoxicity=[(experimental release−fungal cell spontaneous control−host cell spontaneous control)/(host cell maximum control−fungal cell maximum control−host cell spontaneous control)]×100. LDH is a cytosolic enzyme but will be released into the cell culture medium upon cell membrane damage. The amount of extracellular LDH is proportional to the amount of cell damage.

[2] = test system: A549 cells infected with C. bertholletiae; assay: C. bertholletiae-induced damage of A549 cells (LDH assay); format: cell-based, human; settings: 25 μM Mifepristone overnight and/or 25 μM Gefitinib 1 h, 24 h infection (FIG. 14)
[3] = test system: A549 cells infected with M. circinelloides; assay: M. circinelloides-induced damage of A549 cells (LDH assay); format: cell-based, human; settings: 25 μM Mifepristone overnight and/or 25 μM Gefitinib 1 h, 24 h infection (FIG. 14)
[4] = test system: other Mucormycosis-causing fungi; assay: In vitro infection with other mucormycosis-causing fungi (FIG. 23); format: cell-based
R. delemar [5] = assay: Tissue fungal burden of lungs and brains by qPCR in neutropenic mice; format: in vivo; settings: 10 mg/kg starting 4 h post infection through Day +3, organs collected Day +4, qPCR
Description: Murine models of Mucormycosis. Male ICR mice (20-25 g from Envigo) were immunosuppresed by cyclophosphamide (200 mg/kg administered intraperotenually [i.p]) and cortisone acetate (500 mg/kg, adminstered subcutaneously) given on days −2, +3, and +9 relative to infection. […] To control for bacterial infection, immunosuppressed mice received 50 mg/L Baytrial (enrofloxacin: Bayer, Leverkusen, Germany) ad libitum on Day −3 thorough Day 0, after which Baytril was replaced with daily ceftazidime (5 mg/mouse) treatment adminstered subcutaneously through day+13 days post infection. […] On Day +4, mice were sacrificed and lungs and brains, representing primary and secondary target organs (Luo G, Gebremariam T, Lee H, French S W, Wiederhold N P, Patterson T F, Filler S G, Ibrahim A S. 2013. Efficacy of liposomal amphotericin B and posaconazole in intratracheal models of murine mucormycosis. Antimicrobial agents and chemotherapy 57:3340-7), were collected and processed for tissue fungal burden by qPCR (Ibrahim A S, Bowman J C, Avanessian V, Brown K, Spellberg B, Edwards J E, Jr., Douglas C M. 2005. Caspofungin inhibits Rhizopus oryzae 1,3-beta-D-glucan synthase, lowers burden in brain measured by quantitative PCR, and improves survival at a low but not a high dose during murine disseminated zygomycosis. […]
Statistical Analyses. […] Data were expressed as median±interquartile range. […]

R. delemar [6] = assay: Neutropenic mouse model of pulmonary mucormycosis, survival; format: in vivo, mice; settings: for protection from pulmonary mucormycosis (survival): 10 mg/kg for 5 consecutive days starting 4 h post infection; for protection from pulmonary mucormycosis, delayed administration: treatment delayed for 30 h post infection, administered alone
Description: Murine models of Mucormycosis. Male ICR mice (20-25 g from Envigo) were immunosuppresed by cyclophosphamide (200 mg/kg administered intraperotenually [i.p]) and cortisone acetate (500 mg/kg, adminstered subcutaneously) given on days −2, +3, and +9 relative to infection. […] To control for bacterial infection, immunosuppressed mice received 50 mg/L Baytrial (enrofloxacin: Bayer, Leverkusen, Germany) ad libitum on Day −3 thorough Day 0, after which Baytril was replaced with daily ceftazidime (5 mg/mouse) treatment adminstered subcutaneously through day+13 days post infection. Mice were infected with 2.5×10^5 spores of R. delemar 99-880 in 25 μL PBS given intratracheally as previously described (Luo G, Gebremariam T, Lee H, French S W, Wiederhold N P, Patterson T F, Filler S G, Ibrahim A S. 2013. Efficacy of liposomal amphotericin B and posaconazole in intratracheal models of murine mucormycosis. Antimicrobial agents and chemotherapy 57:3340-7). […] Placebo mice received DMA:PEG300. Survival of mice served as the primary endpoint with moribund mice humanely euthanized. To determine effect of treatment on tissue fungal burden mice were immunosuppressed and infected as above. Gefitinib treatment started 4 post infection and continued through Day +3. On Day +4, mice were sacrificed and lungs and brains, representing primary and secondary target organs (Luo G, Gebremariam T, Lee H, French S W, Wiederhold N P, Patterson T F, Filler S G, Ibrahim A S. 2013. Efficacy of liposomal amphotericin B and posaconazole in intratracheal models of murine mucormycosis. Antimicrobial agents and chemotherapy 57:3340-7), were collected and processed for tissue fungal burden by qPCR (Ibrahim A S, Bowman J C, Avanessian V, Brown K, Spellberg B, Edwards J E, Jr., Douglas C M. 2005. Caspofungin inhibits Rhizopus oryzae 1,3-beta-D-glucan synthase, lowers burden in brain measured by quantitative PCR, and improves survival at a low but not a high dose during murine disseminated zygomycosis. Antimicrobial agents and chemotherapy 49:721-7.) Values are expressed as Log10 spore equivalents per gram tissue.
Statistical Analyses. In vitro experiments were performed in triplicate on two or three separate days. Data were expressed as median±interquartile range. Treatment groups were compared to controls using the Wilcoxon rank-sum test and P values <0.05 were considered significant. For the murine studies, survival of mice was analyzed using the Log Rank test, whereas differences in tissue fungal burden were analyzed by the Wilcoxon Rank Sum test using Graph pad Prism 6. P values of <0.05 were considered significant.

[7] = neutropenic mice infected intratracheally, 10 mg/kg i.p. for 5 consecutive days starting 4 h post infection

SMILES: COc1cc2ncnc(Nc3ccc(F)c(Cl)c3)c2cc1OCCCN1CCOCC1 [Gefitinib]
- R. oryzae-induced damage [1]: significantly decreased
- C. bertholletiae-induced damage [2]: significantly decreased
- M. circinelloides-induced damage [3]: significantly decreased
- in vitro infection of other Mucormycosis-causing fungi [4]: Inhibits
- reduction in fungal burden in organs (lungs and brains) compared to placebo-treated mice (R. delemar [5]): ~1 log
- protection from pulmonary mucormycosis (survival) (R. delemar [6]): protects mice from pulmonary mucormycosis
- protection from pulmonary mucormycosis (survival) (R. delemar [6]; listed as gefitinib): protected
- 18-day survival (R. delemar [6]; delayed treatment beginning 30 h post infection for 6 consecutive days, 10 mg/kg gefitinib, 20 mg/kg posaconazole or both): ~30%
- median survival time (R. delemar [6]; [7]): > 21 days
- mice survived the infection by Day 21 (R. delemar [6]; [7]): 55%
- protection from pulmonary mucormycosis, delayed administration (R. delemar [6]): protects mice from pulmonary mucormycosis
- protection from pulmonary mucormycosis, delayed administration (R. delemar [6]; listed as gefitinib): protected mice from pulmonary mucormycosis
